Measurements as given in patent US11738099B2, “Molecular probes and methods of use” (CASE WESTERN RESERVE UNIVERSITY, priority 2014, dated 2023).
Where no end group is shown, it is not given here.

Legend:
[1] = system: LNCaP prostate tumor xenografts; test: Ex vivo fluorescence imaging and sections, LNCaP mouse model; format: in vivo; conditions: confocal microscopy
Description: (§1) After fluorescence imaging of the organs, they were embedded in O.C.T and sectioned at 5 μm thickness, and mounted on to glass slides. The slides were fixed and permeabilized with cold acetone, followed by blocking with 1% BSA for 1 hour. DAPI or EDB-FN specific antibody, BC-1 (Abcam, Cambridge, Mass.), were applied subsequently for staining. Unbound antibodies were washed with TBS-T (0.1%). Alexa Fluor 594-conjugated goat anti-mouse IgG H&L (Abcam) was used as the secondary antibody. Prolong Gold antifade solution (Invitrogen, Grand Island, N.Y.), was used to cover the slides. The stained tissue sections were imaged using confocal laser scanning microscopy.
(§2) The targeted binding of ZD2-Cy5.5 to the prostate tumor was assessed ex vivo using Maestro FLEX In vivo Imaging System (Caliper Life Sciences, Hopkinton, Mass.) using a red filter set (spectral range of 630-910 nm, 1000 ms exposure time). ZD2-Cy5.5 (10 nmol) was administered to study the in vivo distribution of ZD2-based probes. At 3 h post-injection, the mice were sacrificed to image the tumors and the organs.

MDA-MB-231 tumours [2] = test: Fluorescence imaging of tumours, organs and sections, MDA-MB-231 model; format: in vivo, mouse
Description: (§3) To determine the distribution of ZD2-Cy5.5 in the major organs and tumours, 10 nmol ZD2-Cy5.5 was injected in tumour-bearing mice through the tail vein. At 3 h after injection, mice were sacrificed. Tumours and organs were collected and imaged with CSi Maestro imaging system (Woburn, Mass., USA) using the deep red filter sets (exposure time: 1000 ms).
(§4) Tumours were embedded in Optimum Cutting Temperature Compound (OCT) and kept froze in −80° C. Tumour tissues sectioned at the thickness of 5 μm were then fixed and permeabilized with cold acetone. BSA (1%) in PBS was used to block the tissue at room temperature for 1 hour. Mouse anti-EDB-FN antibody, BC-1 (ab154210, Abcam, Cambridge, Mass., USA), diluted with 1% BSA (1:500) was applied to the tissue and incubated at room temperature for 1 hour. After extensive washing, AlexFluor594-conjugated anti-mouse IgG antibody (1:500) (Invitrogen, Eugene, Oreg., USA) was applied and incubated with the tissue for 1 hour. Tissue sections were then counterstained with Prolong Gold antifade mounting medium with DAPI (Invitrogen). Confocal laser scanning microscopy (FV1000, Olympus, Japan) was used to acquire the fluorescence images of the tissues. H&E staining of the tissue was performed at the tissue resource core of Case Western Reserve University. H&E staining images were acquired using the Virtual slide microscope VS120 (Olympus).

LNCaP cell clusters = test: ZD2-Cy5.5 binding, 3D matrigel culture of LNCaP cells; format: cell-based; conditions: 250 nM, 1 h
Description: (§5) All reagents for chemical synthesis were purchased from Sigma Aldrich unless stated otherwise. PC3 and LNCaP cells were purchased from American Type Culture Collection (ATCC, Manassas, Va., USA), and grown in RPMI medium (Thermo Fisher Scientific, Waltham, Mass., USA) supplemented with 10% Fetal Bovine Serum (FBS) and 1% Penn/Strep at 37° C. in 5% CO2. To construct GFP-expressing cell lines, cells were transfected with lentivirus as previously reported. Matrigel 3D culture was formed following the 3D “on-top” protocol. Briefly, a glass-bottom plate was coated with a thick layer of freshly thawed matrigel, followed by solidifying the matrigel at 37° C. for 15-30 min. Cells were then plated onto the coated plate with medium containing 5% matrigel. The culture was maintained for at least 4-6 days and then ZD2-Cy5.5 (250 nM) was added to the culture medium. After 1 h, cells in the 3D matrigel were imaged with confocal laser fluorescence microscopy.

MDA-MB-231 spheres = test: ZD2-Cy5.5 binding, 3D culture of MDA-MB-231 cells; format: cell-based; conditions: 250 nM, 1 h, confocal microscopy
Description: (§6) MDA-MB-231, Hs578T, BT549, MCF-7, ZR-75-1 and T47D were acquired from American Type Culture Collection (ATCC, Rockville, Md., USA). MDA-MB-231 cells were maintained in Dulbecco Modified Eagle Medium (DMEM) supplemented with 10% fetal bovine serum (FBS) and 5% penicillin/streptomycin (pen/strep). Hs578T, BT549 and MCF-7 cells were maintained in Eagle Minimum Essential Medium (EMEM) supplemented with 0.01 mg/ml human recombinant insulin, 10% FBS and 5% pen/strep. ZR-75-1 and T47D were maintained in RPMI 1640 medium supplemented with 10% FBS and 5% pen/strep. Three-dimensional culture of cells was achieved by an “on-top” matrigel method reported previously. Briefly, on a glass-bottom plate a thick layer of matrigel was coated, followed by plating MDA-MB-231 or MCF-7 cells on top of the matrigel. Once 3D sphere or clusters formed, ZD2-Cy5.5 was added to the medium to the final concentration of 250 nM. Binding of ZD2-Cy5.5 to the 3D spheres was evaluated using a confocal laser scanning microscope (Olympus Corporation, Tokyo, Japan) after culturing for 1 h.

MCF-7 cells = test: ZD2-Cy5.5 binding, 3D culture of MCF-7 cells; format: cell-based; conditions: 250 nM, 1 h, confocal microscopy
Description: as §6

PC3 spheroids = test: ZD2-Cy5.5 binding, 3D matrigel culture of PC3 cells; format: cell-based; conditions: 250 nM, 1 h
Description: as §5

[3] = system: PC3 prostate tumor xenografts; test: Ex vivo fluorescence imaging, PC3 mouse model; format: in vivo; conditions: 3 hours after intravenous injection, 10 nmol
Description: as §1, §2

MCF-7 tumours [4] = test: Fluorescence imaging of tumour sections, MCF-7 model; conditions: mouse, in vivo
Description: as §3, §4

Size by TEM and DLS = format: physicochemical
MCF-7 tumours [5] = test: MRI at 1.0 Tesla, MCF-7 tumours; format: in vivo, mouse; conditions: 1.67 μmol/kg i.v.
Description: MR images of the mice bearing MDA-MB-231 or MCF-7 tumour xenografts were acquired on an Aspect M3 small animal MRI scanner (1 Tesla). Mice were placed on a holder with the temperature maintained at 37° C., with isoflurane/oxygen mixture supplied to the mice through a nose cone. A thin catheter filled with PBS was connected to the tail vein of the mice. After mice were placed in the coil, a pilot scan was performed to adjust mice to the proper location in the coil. An axial T1-weighted sequence (TR=500 ms; TE=9 ms; Flip angle=90°; Field of view=3 cm×3 cm; Matrix size=128×128×8; slice thickness=2 mm; inter-slice distance=1 mm) was then used to acquire the images of the tumours before and 10 min, 20 min, and 30 min after contrast injection. Images were exported into DICOM data, which were then processed and analyzed using Matlab (Natick, Mass., USA). The contrast-to-noise ratio of tumours in the images was calculated as the difference between tumour mean intensity minus muscle mean intensity, divided by the noise. Three-dimensional images of mice were acquired using a gradient echo T1-weighted sequence with the following parameters: TR=17 ms; TE=6 ms; Flip angle=15°; Field of view=3.5 cm×8 cm; Matrix size=128×512×16; slice thickness=1.5 mm. […] The images were similarly analyzed as described above.

[6] = In vitro transmetallation assay with human serum; format: in vitro ADME; conditions: 2 h
Description: We performed in vitro transmetallation assay according to the protocol reported previously. Briefly, ZD2-Gd3N@C80 (0.02 mM Gd/mL) was incubated with human serum for 2 h. According to previous reports, transmetallation of Gd with Zn^2+, Cu^2+ and Ca^2+ bound in serum proteins occurs rapidly and 2 h is sufficient to study the equilibrium of transmetallation. The mixtures were then centrifuged at 4000 rpm and 25° C. for 150 min using CF-10 centrifugal filters (molecular weight cutoff 10 kDa). Metal ions in both the upper reservoir and the filtrates were quantified by ICP-OES. […] The degree of transmetallation of ZD2-Gd3N@C80 with Zn^2+, Cu^2+ and Ca^2+ ions in serum was evaluated using the percentage of Zn^2+, Cu^2+ and Ca^2+ ions filtered through the membrane, calculated as Transmetallation (%)=(concentration of ions in the filtrates)/(total ion concentrations before filtration)×100. Human serum was used a control.

[7] = system: Hs578T and ZR-75-1 xenografts; test: MRI at 7 T, mice bearing Hs578T and ZR-75-1 xenografts; format: in vivo, mouse; conditions: 20 μmol Gd/kg, 30 min
Description: (§7) Female athymic nude mice were purchased from the Case Comprehensive Cancer Center and housed in the Case Center Imaging Research. All animal experiments were carried out according to a protocol approved by the IACUC of Case Western Reserve University. To initiate tumour xenografts, cells cultured in 150 mm dishes were trypsinized and centrifuged. Cell pellets from each dish were suspended in 100 μL PBS and reconstituted with Corning Matrigel Matrix High Concentration (Corning, Corning, N.Y., USA) to a concentration of 2×10^7 cells/mL on ice. The suspended cells in 100 μL matrigel solution were injected subcutaneously in the flank of mice (4-6 weeks) using a 19-gauge needle. After injection, a plug in flank was formed due to matrigel gelling. Tumours were allowed to grow for at least a month before imaging. […]
(§8) MR images of the mice bearing MDA-MB-231 or MCF-7 tumour xenografts were acquired on an Aspect M3 small animal MRI scanner (1 Tesla). […] Images were exported into DICOM data, which were then processed and analyzed using Matlab (Natick, Mass., USA). The contrast-to-noise ratio of tumours in the images was calculated as the difference between tumour mean intensity minus muscle mean intensity, divided by the noise. […] The images were similarly analyzed as described above.

Water solubility = format: physicochemical; conditions: gadofullerene agent
MDA-MB-231 tumours [8] = test: MRI at 1.0 Tesla, MDA-MB-231 tumours; format: in vivo, mouse
Description: MR images of the mice bearing MDA-MB-231 or MCF-7 tumour xenografts were acquired on an Aspect M3 small animal MRI scanner (1 Tesla). Mice were placed on a holder with the temperature maintained at 37° C., with isoflurane/oxygen mixture supplied to the mice through a nose cone. A thin catheter filled with PBS was connected to the tail vein of the mice. After mice were placed in the coil, a pilot scan was performed to adjust mice to the proper location in the coil. An axial T1-weighted sequence (TR=500 ms; TE=9 ms; Flip angle=90°; Field of view=3 cm×3 cm; Matrix size=128×128×8; slice thickness=2 mm; inter-slice distance=1 mm) was then used to acquire the images of the tumours before and 10 min, 20 min, and 30 min after contrast injection. Images were exported into DICOM data, which were then processed and analyzed using Matlab (Natick, Mass., USA). The contrast-to-noise ratio of tumours in the images was calculated as the difference between tumour mean intensity minus muscle mean intensity, divided by the noise. Three-dimensional images of mice were acquired using a gradient echo T1-weighted sequence with the following parameters: TR=17 ms; TE=6 ms; Flip angle=15°; Field of view=3.5 cm×8 cm; Matrix size=128×512×16; slice thickness=1.5 mm. Analysis of the change in signal intensity in muscle, heart, liver, kidney, and bladder was performed using Matlab. MRI at 7 Tesla was performed on a horizontal Bruker scanner. T1-weighted spin echo sequence with the following parameters was used: field of view (FOV): 3 cm; slice thickness: 1.2 mm; interslice distance: 1.2 mm; TR: 500 ms, TE: 8.1 ms; flip angle: 90°; average: 2; matrix size: 128×128. The images were similarly analyzed as described above.

[9] = system: BT549 and T47D xenografts; test: MRI at 7 T, mice bearing BT549 and T47D xenografts; format: in vivo, mouse; conditions: 20 μmol Gd/kg, 30 min
Description: as §7, §8

[10] = Relaxivity measurement of gadofullerenes; format: physicochemical
Description: Infrared spectrum of ZD2-Gd3N@C80 was performed using the Cary 630 FTIR Spectrometer (Agilent Technologies, Santa Clara, Calif., USA). Lyophilized hydroxylated Gd3N@C80 or ZD2-Gd3N@C80 was reconstituted to a serial dilution in water. The solutions were pipetted in NMR tubes (500 μL in each tube), and placed in a relaxometer (Bruker) at 1.5 Tesla. For relaxivity measurement at 7 Tesla, NMR tubes containing contrast agent solutions were bundled and placed in a mouse coil in a horizontal 7 Tesla Bruker scanner (Bruker Biospin Co., Billerica, Mass.). T, maps of the solutions were acquired using a previously reported method^29. T1 and T2 values of each solution were measured. The r1 and r2 relaxivities of the contrast agent were calculated as the slope of the plot of 1/T1 and 1/T2 relaxation rates against the concentrations.

ZD2-Cy5.5: linear ZD2 peptide with PEG spacer conjugated to Cy5.5 NHS ester (TVRTSAD; also: PEG spacer conjugated to Cy5.5 NHS ester)
probe in LNCaP tumor sections [1]: undetectable | fluorescence intensity in MDA-MB-231 tumours vs MCF-7 tumours and normal tissues (MDA-MB-231 tumours [2]; 0.5 μmol/kg i.v., 3 hours after injection): greater | fluorescence signal in the liver and kidneys (MDA-MB-231 tumours [2]; 3 hours after injection): Relatively high fluorescence signal intensity | Cy5.5 fluorescence of MDA-MB-231 tumour sections (MDA-MB-231 tumours [2]; mouse, in vivo): strong Cy5.5 fluorescence | binding to LNCaP cell clusters (LNCaP cell clusters): no peptide binding was detected | fluorescence of MDA-MB-231 spheres (MDA-MB-231 spheres): strong fluorescence intensity | binding and fluorescence of MCF-7 cells (MCF-7 cells): lower ZD2-Cy5.5 binding and weaker fluorescence intensity | binding to PC3 spheroids (PC3 spheroids): able to bind EDB-FN secreted by the PC3 spheroids | fluorescence signal of PC3 tumors vs normal organs [3]: enhanced fluorescence signal | ZD2-Cy5.5 binding in MCF-7 tumour sections (MCF-7 tumours [4]): little

ZD2-Gd3N@C80: ZD2-Cys peptide conjugated to maleimido hydroxylated gadofullerene Gd3N@C80, about one peptide per cage (CTVRTSAD; also: conjugated to maleimido hydroxylated gadofullerene Gd3N@C80, about one peptide per cage)
average radius (Size by TEM and DLS; DLS): 1.40 nm | average diameter (Size by TEM and DLS; TEM and DLS): 2.8 nm | signal enhancement in MCF-7 tumours (MCF-7 tumours [5]): little enhancement | transmetallation [6]: < 0.12% | signal enhancement and CNR increase in Hs578T vs ZR-75-1 tumours [7]: greater signal enhancement and significantly higher CNR increase | water solubility (Water solubility): complete water solubility | signal enhancement in MDA-MB-231 tumours (MDA-MB-231 tumours [8]; 1.67 μmol/kg i.v., 1.0 Tesla, at least 30 minutes): Significant signal enhancement | signal enhancement in MDA-MB-231 tumours with co-injection of ZD2 peptide (MDA-MB-231 tumours [8]; 1.67 μmol/kg with 25 μmol/kg ZD2 peptide): significantly reduced the signal enhancement | increase of contrast-to-noise ratio (CNR) in MDA-MB-231 tumours (MDA-MB-231 tumours [8]; 1.67 μmol/kg, 10-30 min): 39 to 45% | signal enhancement and CNR increase in BT549 vs T47D tumours [9]: greater signal enhancement and significantly higher CNR increase | r1 relaxivity per Gd(III) ion ([10]; 1.5 Tesla): 74.6 mM⁻¹ s⁻¹ | r1 relaxivity per molecule ([10]; 1.5 Tesla): 223.8 mM⁻¹ s⁻¹ | r1 relaxivity per Gd(III) ion ([10]; 7 Tesla): 24.78 mM⁻¹ s⁻¹ | r1 relaxivity relative to clinical Gd(III)-based contrast agents ([10]; vs Gd-DTPA and Gd(HP-DO3A)): ~20 times
